Measured values from patent publication US20020106707A1, “Compositions and methods for detecting and quantifying COX-2 activity and anandamide metabolites” (priority 2000, published 2002).
Like-named read-outs stand apart in the source and are kept apart here.

Experiments:
[1] = rat
COX-2 = target: T1, COX-2 (Mus musculus, UniProt Q05769); conditions: 3 μM inhibitor; RAW264.7 cells activated with LPS (1 μg/mL) and IFN-γ (10 units/mL), AEA 20 μM
T1 sequence (Q05769 18-604): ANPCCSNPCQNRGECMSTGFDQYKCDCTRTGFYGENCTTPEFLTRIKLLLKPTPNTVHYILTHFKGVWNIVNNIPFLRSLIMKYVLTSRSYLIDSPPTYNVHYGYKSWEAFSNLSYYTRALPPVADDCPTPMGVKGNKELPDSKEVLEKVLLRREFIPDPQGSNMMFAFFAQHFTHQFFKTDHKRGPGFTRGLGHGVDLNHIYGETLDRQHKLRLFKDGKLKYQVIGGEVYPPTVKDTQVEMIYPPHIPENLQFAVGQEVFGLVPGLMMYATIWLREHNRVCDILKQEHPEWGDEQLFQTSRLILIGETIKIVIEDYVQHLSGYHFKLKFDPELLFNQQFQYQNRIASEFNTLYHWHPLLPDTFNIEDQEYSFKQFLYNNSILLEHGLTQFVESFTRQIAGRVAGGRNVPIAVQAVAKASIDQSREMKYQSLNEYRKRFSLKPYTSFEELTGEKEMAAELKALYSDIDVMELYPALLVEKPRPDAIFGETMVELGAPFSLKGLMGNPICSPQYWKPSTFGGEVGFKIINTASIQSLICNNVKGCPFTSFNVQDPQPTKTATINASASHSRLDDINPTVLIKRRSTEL

## CCCCCC(=O)CCC1C(O)CC(=O)C1C/C=C\CCCC(=O)NCCO (centres unmarked) [13,14-dihydro-15-keto-PGE2-EA]
[1]; in vivo, iv, 2 mg/kg
  detection at 2 hours post-dosing: routinely detected

## CCCCC[C@H](O)/C=C/[C@H]1[C@H](O)CC(=O)[C@@H]1C/C=C\CCCC(=O)NCCO [PGE2-EA, prostaglandin E2 ethanolamide]
[1]; 2 mg/kg PGE2-EA IV
  apparent volume of distribution: 300 to 400 mL
[1]; 2 mg/kg PGE2-EA IV, 2 hours post-dosing
  detection at 2 hours post-dosing: routinely detected
[1]; 2 mg/kg PGE2-EA IV, n=3
  calculated plasma half-life: 6.33 ± 0.833 min

## COc1ccc2c(c1)c(CC(=O)NCCc1ccccc1)c(C)n2C(=O)c1ccc(Cl)cc1 [indomethacin phenethylamide, 2-[1-(4-chlorobenzoyl)-5-methoxy-2-methyl-1H-indol-3-yl]-N-phenethylacetamide]
COX-2
  PGD2-EA biosynthesis: inhibited
